{"source": "patent US12233129B2", "about": "“Methods and compositions for the treatment of cancer” (priority 2019, dated 2025)", "key": {"LoVo [1]": {"test_system": "LoVo", "assay": "Cell detachment assay and live cell imaging", "assay_type": "cell-based, human", "details": "dose- and time-dependent", "procedure": "(§1) Based on the above results, we then hypothesized that VTD-induced UBXN2A leads to apoptosis and cell death mimicking the Tet-on induced-UBXN2A model (FIG. 15). As cell detachment and cell shrinking are ubiquitous aspects of apoptosis, we examined these features in four cancer cell lines: HCT116 (WT-p53), LoVo (WT-p53), SW-480 (mutant-p53), and U2OS (WT-p53), all in the presence of VTD (FIG. 17, S4).\n(§2) The viability of cells was calculated as % of control.\n(§3) FIG. 17: Induction of apoptosis and in vitro cytotoxicity by VTD in a human cancer cell line with different statuses of p53 and mot-2. (A-D) Cells were treated with VTD for 24, 48, and 72 hours. After incubation, dead cells were washed off, and the remaining attached cells were calculated by counting in five random fields using the Axiovert 200 M inverted microscope and AxioVision software (cell detachment assay). The % of cells attached was calculated as % of control cells. […] The data is shown as mean+SEM of three independent experiments (n=3, *p<0.05). (E-K) Cells were plated for 5 days, and the colonies of cells were treated with different concentration of VTD. The colonies of viable cells were stained with crystal violet dye and absorbance, as an index of measurement of colony forming units, was read at 562 nm (clonogenic survival assay). VTD induced a significant decrease in cell viability in a p53- and differentiation grade manner in HCT-116 poorly differentiated cells (E), HCT 116 p53+/−(F), HCT-116 p53−/− (G), LoVo well-differentiated cells (H), SW-480 (K), and two non-colon cancer cells: HepG2 (I) and U2OS (J). The data is shown as mean+SEM of three independent experiments (n=3, *p<0.05). (L) Determination of endogenous levels of mot-2, UBXN2A, HSC70, and p53 proteins in various cancer cell lines using WB. (M) HCT-116 cells were treated with VTD (10 and 30 μM) and cytoplasmic and nuclear fractions were subjected to WB. HSC70 and Orc-2 antibodies were used as cytoplasmic and nuclear markers, respectively."}, "U2OS": {"test_system": "U2OS", "assay": "Cell detachment assay and live cell imaging", "assay_type": "cell-based, human", "details": "dose- and time-dependent", "procedure": "as §1, §2, §3"}, "SW480": {"test_system": "SW480", "assay": "Cell detachment assay and live cell imaging", "assay_type": "cell-based, human", "details": "mutant p53", "procedure": "as §1, §2, §3"}, "HCT-116": {"test_system": "HCT-116", "assay": "Cell detachment assay and live cell imaging", "assay_type": "cell-based, human", "details": "dose- and time-dependent", "procedure": "as §1, §2, §3"}, "[2]": {"test_system": "SW-48 (WT-p53) colon cancer cells", "assay": "Cell viability / clonogenic survival with and without mot-2 inhibitor MKT-077", "assay_type": "cell-based, human", "set-up": "dose or concentration left out as unconfirmed", "procedure": "(§4) We decided to confirm whether VTD-induced tumor suppression is indeed mediated via the UBXN2A-mot-2-p53 axis (FIG. 18H). After initial verification with WB (FIG. 18A), HCT-116 (p53+/+ and p53 −/−) and LoVo were treated with VTD for 24, 48, and 72 hours (FIG. 18B-D). […] We defined this phenomenon as a delayed cytotoxic response, since it occurs through UBXN2A transcription, as previously described for other anti-cancer agents. […] In the second set of experiments, we treated two stable UBXN2A silenced clones of HCT-116 along with controls with VTD. […] Staurosporine-treated cells were used as a positive control (S4F). […] Finally, to understand the contribution of mot-2 to the anti-cancer mechanism of VTD, we used a mot-2 inhibitor known as MKT-077 [7] along with VTD in well-differentiated SW-48 (WT-p53) colon cancer cells for 72 hours. Due to the critical role of mot-2 in the mitochondria, we could not use a silencing strategy for mot-2 in this set of experiments.\n(§5) FIG. 18: Veratridine (VTD) functions via the UBXN2A-mot-2-p53 axis. (A) WB confirmed the presence and the absence of p53 protein in HCT-116 p53^(+/+) and HCT-116 p53^(−/−) cancer cell lines, respectively. […] (F) In another set of experiments, UBXN2A-silenced cells were treated with VTD (100, 200, and 300 μM) for 24 hours. Cells were then labelled with Sytox Red followed by flow cytometry analysis. […] (G) SW48 well-differentiated colon cancer cells with WT-p53 were treated with MKT-077 (5 mg/ml), an mot-2 inhibitor, along with VTD for 72 hours. […] (H) This flowchart recapped the sequence of proteins which activate and function upon VTD exposure to decrease cell viability. The data is shown as mean±SEM of three independent experiments (n=3) in triplicate where *p<0.05 using Benferroni's modified student's t-test."}, "Rictor": {"test_system": "Rictor", "assay": "Flow cytometry with anti-Rictor antibody in SW480 cells", "assay_type": "cell-based, human", "details": "VTD 5 days (semi-chronic treatment), N=3", "procedure": "In panels A-E, SW480 cells were treated with VTD for 5 days (a semi-chronic treatment) and the cells were collected and subjected to flow-cytometry analysis using anti-Rictor antibody."}, "HCT-116 p53+/+": {"test_system": "HCT-116 p53+/+", "assay": "MTT cell viability assay", "assay_type": "cell-based, human", "procedure": "as §4, §2, §5"}, "LoVo [3]": {"test_system": "LoVo", "assay": "MTT cell viability assay", "assay_type": "cell-based, human", "procedure": "as §4, §2, §5"}, "HCT-116 p53−/−": {"test_system": "HCT-116 p53−/−", "assay": "MTT cell viability assay", "assay_type": "cell-based, human", "procedure": "as §4, §2, §5"}, "[4]": {"test_system": "UBXN2A silenced clones of HCT-116", "assay": "Viability (MTT) and cell death (Sytox red flow cytometry) of UBXN2A silenced cells", "assay_type": "cell-based, human", "procedure": "as §4, §2\nFIG. 18: Veratridine (VTD) functions via the UBXN2A-mot-2-p53 axis. (A) WB confirmed the presence and the absence of p53 protein in HCT-116 p53^(+/+) and HCT-116 p53^(−/−) cancer cell lines, respectively. […] (F) In another set of experiments, UBXN2A-silenced cells were treated with VTD (100, 200, and 300 μM) for 24 hours. […]"}, "[5]": {"test_system": "HCT-116-iRFP cancer cells", "assay": "HCT-116-iRFP xenograft mouse model", "assay_type": "in vivo, Hsd:Athymic Nude-Foxn1nu mice", "details": "IP 0.1 mg/kg every other day for 5 weeks versus Ethanol", "procedure": "Five week Hsd:Athymic Nude-Foxn1^nu mice were implanted with 1×10^6 HCT-116-iRFP cancer cells at both flanks followed by IP injection of Ethanol (con) or Veratridine (VTD-0.1 mg/kg) every other day for 5 weeks. Twelve mice were used per treatment with 6 males and 6 females in each group."}, "[6]": {"test_system": "SW480 colon cancer cell line", "assay": "Flow cytometry of stem cell markers", "assay_type": "cell-based, human", "details": "VTD 72 hours", "procedure": "FIG. 24 panels A-D are examples of FlowJo analysis of CD44 biomarker in SW480 cells treated with VTD for 72 hours."}}, "note": "“Also recorded” adds a separate entry of the source."}
{"compound": "COc1ccc(C(=O)O[C@H]2CC[C@@]3(C)[C@@H]4CC[C@H]5[C@]6(O)C[C@H](O)[C@@]7(O)[C@@H](CN8C[C@@H](C)CC[C@H]8[C@@]7(C)O)[C@]6(O)C[C@@]53O[C@]24O)cc1OC", "note": "[VTD, Veratridine]", "values": [{"measurement": "cell detachment (% of cells attached)", "setting": "LoVo [1]; 24, 48 and 72 hours", "result": "significantly increases cell detachment; also recorded: significantly decreases the % of cells attached"}, {"measurement": "cell shrinking and rounding (live cell imaging)", "setting": "LoVo [1]", "result": "induces cell shrinking and rounding"}, {"measurement": "cell detachment (% of cells attached)", "setting": "U2OS; 24, 48 and 72 hours", "result": "significantly increases cell detachment; also recorded: significantly decreases the % of cells attached"}, {"measurement": "cell shrinking and rounding (live cell imaging)", "setting": "U2OS", "result": "induces cell shrinking and rounding"}, {"measurement": "cell detachment (% of cells attached)", "setting": "SW480; 24, 48 and 72 hours", "result": "no effect on cell detachment; also recorded: not with mutant p53"}, {"measurement": "cell shrinking and rounding (live cell imaging)", "setting": "SW480", "result": "remain unchanged"}, {"measurement": "cell detachment (% of cells attached)", "setting": "HCT-116; 24, 48 and 72 hours", "result": "significantly increases cell detachment; also recorded: significantly decreases the % of cells attached"}, {"measurement": "cell shrinking and rounding (live cell imaging)", "setting": "HCT-116", "result": "induces cell shrinking and rounding"}, {"measurement": "cell viability / colony number", "setting": "[2]; VTD alone, 72 hours", "result": "significantly decreased cell viability in a dose-dependent manner; also recorded: signifcantly decreases the colony number"}, {"measurement": "cell viability / colony number", "setting": "[2]; VTD with mot-2 inhibitor MKT-077, 72 hours", "result": "no significant effect on cell viability"}, {"measurement": "level of Rictor proteins", "setting": "Rictor", "result": "significantly decreases Rictor proteins"}, {"measurement": "cell viability (MTT)", "setting": "HCT-116 p53+/+; 48 and 72 hours, compared with HCT-116 p53−/−", "result": "significantly lower"}, {"measurement": "cell viability (MTT)", "setting": "HCT-116 p53+/+; 24 hour treatment", "result": "not sufficient to produce any cytotoxic or anti-proliferative effect"}, {"measurement": "cell viability (MTT)", "setting": "LoVo [3]; 48 and 72 hours", "result": "reduction of cell viability reached a maximum at 72 hours; also recorded: highest sensitivity to VTD"}, {"measurement": "cell viability (MTT)", "setting": "LoVo [3]; 24 hour treatment, higher doses", "result": "significantly decreases the viability"}, {"measurement": "cell viability (MTT)", "setting": "HCT-116 p53−/−; 48 and 72 hours", "result": "started to respond to VTD at higher doses after 48 hours; also recorded: more resistance to VTD's effects"}, {"measurement": "cell viability (MTT)", "setting": "HCT-116 p53−/−; 24 hour treatment", "result": "not sufficient to produce any cytotoxic or anti-proliferative effect"}, {"measurement": "cell viability of UBXN2A silenced cells versus control cells upon VTD", "setting": "[4]; MTT", "result": "greater cell viability than control cells; also recorded: significantly higher as compared to control cells"}, {"measurement": "cell death (Sytox red) of UBXN2A silenced cells upon VTD", "setting": "[4]; VTD 100, 200 and 300 μM, 24 hours", "result": "significant decrease in the cell death; also recorded: significantly decreases cell death"}, {"measurement": "growth of tumor", "setting": "[5]", "result": "slowdown growth of tumor"}, {"measurement": "CD44+ stem cell population", "setting": "[6]", "result": "significant reduction"}, {"measurement": "CD133+ stem cell population", "setting": "[6]", "result": "significant reduction"}, {"measurement": "LgR5+ stem cell population", "setting": "[6]", "result": "significant reduction"}]}
